Assay [1] concerns the target T1, Solute carrier organic anion transporter family member 1A4 (Rattus norvegicus, UniProt O35913).
T1 sequence (O35913 whole entry): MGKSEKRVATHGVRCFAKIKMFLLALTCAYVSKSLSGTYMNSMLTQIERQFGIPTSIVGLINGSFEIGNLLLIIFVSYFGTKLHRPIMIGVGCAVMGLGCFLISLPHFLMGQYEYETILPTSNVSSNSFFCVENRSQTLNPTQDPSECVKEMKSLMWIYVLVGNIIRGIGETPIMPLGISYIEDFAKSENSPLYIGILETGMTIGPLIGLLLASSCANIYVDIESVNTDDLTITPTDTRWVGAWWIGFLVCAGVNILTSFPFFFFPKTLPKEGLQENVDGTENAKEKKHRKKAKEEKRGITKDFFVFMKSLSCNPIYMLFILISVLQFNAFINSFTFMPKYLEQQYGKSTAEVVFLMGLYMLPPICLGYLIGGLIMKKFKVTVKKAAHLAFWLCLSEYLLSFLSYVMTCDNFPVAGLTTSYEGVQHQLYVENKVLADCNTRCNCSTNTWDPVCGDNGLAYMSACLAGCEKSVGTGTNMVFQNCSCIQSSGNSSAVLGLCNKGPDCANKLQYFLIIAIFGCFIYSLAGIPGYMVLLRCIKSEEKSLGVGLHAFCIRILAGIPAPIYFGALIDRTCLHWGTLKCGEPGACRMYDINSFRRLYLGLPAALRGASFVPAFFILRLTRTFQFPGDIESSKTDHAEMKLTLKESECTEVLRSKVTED
The assay is described as follows: (§1) TP_TRANSPORTER: inhibition of E217betaG uptake in Xenopus laevis oocytes. It is filed as functional, cell-based, Oocyte.

The target in assay [2] is T2, Solute carrier organic anion transporter family member 1A1 (Rattus norvegicus, UniProt P46720).
T2 sequence (P46720 whole entry): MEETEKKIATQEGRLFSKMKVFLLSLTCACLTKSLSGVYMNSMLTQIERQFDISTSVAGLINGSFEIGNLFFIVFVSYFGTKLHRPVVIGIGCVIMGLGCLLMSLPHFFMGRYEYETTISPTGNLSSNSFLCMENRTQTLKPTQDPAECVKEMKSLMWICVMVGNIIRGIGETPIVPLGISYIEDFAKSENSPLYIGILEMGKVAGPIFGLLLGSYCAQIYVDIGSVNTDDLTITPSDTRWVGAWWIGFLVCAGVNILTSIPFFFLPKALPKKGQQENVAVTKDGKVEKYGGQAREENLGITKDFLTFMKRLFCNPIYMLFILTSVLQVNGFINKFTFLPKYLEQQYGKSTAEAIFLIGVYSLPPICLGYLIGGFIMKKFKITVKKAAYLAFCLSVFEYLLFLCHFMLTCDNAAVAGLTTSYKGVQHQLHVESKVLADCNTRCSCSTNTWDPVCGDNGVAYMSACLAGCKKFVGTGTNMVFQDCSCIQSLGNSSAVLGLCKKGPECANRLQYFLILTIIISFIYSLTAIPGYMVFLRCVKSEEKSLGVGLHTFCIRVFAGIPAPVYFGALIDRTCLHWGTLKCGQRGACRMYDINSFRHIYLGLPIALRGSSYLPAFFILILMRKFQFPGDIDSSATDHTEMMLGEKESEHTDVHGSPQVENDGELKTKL
The description is as §1. It is filed as functional, cell-based, Oocyte.

Usually Ki stands for the equilibrium dissociation constant of an inhibitor or competing ligand from its target. Higher therefore signals weaker binding. As for `CO[C@H]1/C=C/O[C@@]2(C)Oc3c(C)c(O)c4c(O)c(c(/C=N/N5CCN(C)CC5)c(O)c4c3C2=O)NC(=O)/C(C)=C\C=C\[C@H](C)[C@H](O)[C@@H](C)[C@@H](O)[C@@H](C)[C@H](OC(C)=O)[C@@H]1C` [RIFAMPIN], in assay [1], the inhibition constant Ki worked out at 1.4 µM.
As to `CO[C@H]1/C=C/O[C@@]2(C)Oc3c(C)c(O)c4c(O)c(cc(O)c4c3C2=O)NC(=O)/C(C)=C\C=C\[C@H](C)[C@H](O)[C@@H](C)[C@@H](O)[C@@H](C)[C@H](OC(C)=O)[C@@H]1C` [RIFAMYCIN], the Ki in assay [1] was determined as 7.3 µM; in assay [2], 6.6 µM.

The values are drawn from ChEMBL document CHEMBL2073820, “Rifamycin SV and rifampicin exhibit differential inhibition of the hepatic rat organic anion transporting polypeptides, Oatp1 and Oatp2” (Hepatology, 2000).
